# Laboratory results published in US8288552B2, “Dihydropyridone amidesas P2X7 modulators” (Roche Palo Alto LLC, priority 2008, dated 2012).
# Target: T1, P2X7 (UniProt Q99572)
# T1 sequence (Q99572 1-595): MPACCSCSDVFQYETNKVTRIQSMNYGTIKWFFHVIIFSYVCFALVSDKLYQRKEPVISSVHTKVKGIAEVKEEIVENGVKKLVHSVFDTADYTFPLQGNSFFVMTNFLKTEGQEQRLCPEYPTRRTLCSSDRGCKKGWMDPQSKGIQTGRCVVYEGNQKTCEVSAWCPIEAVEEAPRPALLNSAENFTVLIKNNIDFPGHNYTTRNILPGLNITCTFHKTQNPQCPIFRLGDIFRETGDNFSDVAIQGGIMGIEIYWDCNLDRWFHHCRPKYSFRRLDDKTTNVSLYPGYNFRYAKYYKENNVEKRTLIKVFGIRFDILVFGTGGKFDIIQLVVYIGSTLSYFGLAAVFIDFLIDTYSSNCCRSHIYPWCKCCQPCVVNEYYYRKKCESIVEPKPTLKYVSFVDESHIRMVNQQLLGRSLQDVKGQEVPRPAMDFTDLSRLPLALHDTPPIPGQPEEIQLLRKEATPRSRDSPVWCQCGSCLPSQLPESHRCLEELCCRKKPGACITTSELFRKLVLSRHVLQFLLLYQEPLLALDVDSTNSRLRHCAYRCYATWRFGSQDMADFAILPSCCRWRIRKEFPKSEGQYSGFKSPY
# Test: P2X7 pKi of Table 1
# Type: cell-based
# Description: Intracellular Calcium Flux (FLIPR) Assay
# Compound and Reagent Preparation
# Stock solutions of compounds were prepared from powders as a 10 mM DMSO stock solution. These solutions were stored at RT during the two week period of these experiments to prevent freeze-thaw of the DMSO stocks. The DMSO stocks were added to the appropriate assay buffer at a concentration of 10 μM, and then diluted serially to the final concentrations that were tested. […] The aqueous solutions of compounds as well as ATP (Sigma A7699) and BzATP (Sigma B6396) were prepared fresh for each day of experiment.
# 1321N1 cells stably expressing the full length human P2X7 gene (1321N1-hP2X7) and HEK293 cells stably expressing the full length rat P2X7 gene (HEK293-rP2X7) were obtained from the Roche Cell Culture Facility. 1321N1-hP2X7 cells were grown in Dulbecco's Modified Eagle's Medium (DMEM) high glucose supplemented with 10% FBS and 250 μg/mL G418. HEK293-rP2X7 cells were grown in DMEM/F-12 supplemented with 10% FBS, 1 mM CaCl2, 2 mM MgCl2, 2 mM L-Glutamine and 500 μg/ml G418. Cells were split such that they never became >70% confluent.
# Intracellular Calcium Flux (FLIPR)
# On the day prior to the experiment, 1321N1-hP2X7 or HEK293-rP2X7 cells were released into suspension with calcium-free PBS+Versene and washed by centrifugation with calcium-free PBS to remove the Versene. Cells were resuspended in growth medium at a density of 2.5×10^5 cells/mL and seeded into black walled, clear bottom 96 well plates (50,000 cells/well) approximately 18 hr prior to intracellular calcium flux experiments.
# On the day of the experiment, plates were washed with FLIPR buffer (calcium- and magnesium-free Hank's Balanced Salt Solution (HBSS) supplemented with 10 mM Hepes, 2.5 mM probenecid and 2 mM calcium chloride) using a BIO-TEK 96 channel plate washer and incubated with […] fluo-3 dye at 37° C. for one hr. The dye was then removed by plate washing and the cells were allowed to equilibrate for 20 min at room temperature with antagonist or vehicle (FLIPR buffer). Agonist (100 μM BzATP final concentration for hP2X7; 5 μM BzATP final concentration or rP2X7) was added online with the FLIPR and fluorescence measurements made at 1 sec intervals for 60 sec followed by 3 sec intervals for a further 4 min (5 min total). A final addition of 5 μM ionomycin was made and the maximal BzATP-evoked fluorescence normalized to the maximal ionomycin-evoked fluorescence.
row,Compound,pKi
1,"COc1cc(NC(=O)C2=CNC(=O)C[C@@H]2c2cccc(F)c2)c(Br)cc1C [Compound 29, (R)-4-(3-Fluoro-phenyl)-6-oxo-1,4,5,6-tetrahydro-pyridine-3-carboxylic acid(2-bromo-5-methoxy-4-methyl-phenyl)-amide]",6.405
2,"COc1cc(Br)c(NC(=O)C2=CNC(=O)C[C@H]2c2cccc(F)c2)cc1OC [Compound 30, (S)-4-(3-Fluoro-phenyl)-6-oxo-1,4,5,6-tetrahydro-pyridine-3-carboxylic acid(2-bromo-4,5-dimethoxy-phenyl)-amide]",8.045
3,"COc1cc(Br)c(NC(=O)C2=CN(C)C(=O)CC2c2ccc(F)cc2)cc1OC (centres unmarked) [Compound 31, 4-(4-Fluoro-phenyl)-1-methyl-6-oxo-1,4,5,6-tetrahydro-pyridine-3-carboxylic acid(2-bromo-4,5-dimethoxy-phenyl)-amide]",6.525
4,"COc1cc(C)c(NC(=O)C2=CNC(=O)CC2c2ccc(F)cc2)cc1OC (centres unmarked) [Compound 32, 4-(4-Fluoro-phenyl)-6-oxo-1,4,5,6-tetrahydro-pyridine-3-carboxylic acid(4,5-dimethoxy-2-methyl-phenyl)-amide]",7.98
5,"COc1cc(NC(=O)C2=CNC(=O)C[C@H]2c2cccc(F)c2)c(Br)cc1C [Compound 33, (S)-4-(3-Fluoro-phenyl)-6-oxo-1,4,5,6-tetrahydro-pyridine-3-carboxylic acid(2-bromo-5-methoxy-4-methyl-phenyl)-amide]",7.195
6,"COc1cc(Br)c(NC(=O)C2=CNC(=O)C[C@@H]2c2cccc(F)c2)cc1OC [Compound 34, (R)-4-(3-Fluoro-phenyl)-6-oxo-1,4,5,6-tetrahydro-pyridine-3-carboxylic acid(2-bromo-4,5-dimethoxy-phenyl)-amide]",6.9783
7,"COc1cc(NC(=O)C2=CNC(=O)CC2c2cccc(F)c2)c(Br)cc1F (centres unmarked) [Compound 35, 4-(3-Fluoro-phenyl)-6-oxo-1,4,5,6-tetrahydro-pyridine-3-carboxylic acid(2-bromo-4-fluoro-5-methoxy-phenyl)-amide]",6.65
8,"Cc1ccc(C)c(NC(=O)C2=CNC(=O)CC2c2ccc(F)cc2)c1 (centres unmarked) [Compound 36, 4-(4-Fluoro-phenyl)-6-oxo-1,4,5,6-tetrahydro-pyridine-3-carboxylic acid(2,5-dimethyl-phenyl)-amide]",6.93
9,"Cc1cccc(NC(=O)C2=CNC(=O)CC2c2ccc(F)cc2)c1C (centres unmarked) [Compound 37, 4-(4-Fluoro-phenyl)-6-oxo-1,4,5,6-tetrahydro-pyridine-3-carboxylic acid(2,3-dimethyl-phenyl)-amide]",7.12
10,"Cc1ccc(Br)c(NC(=O)C2=CNC(=O)CC2c2ccc(F)cc2)c1 (centres unmarked) [Compound 38, 4-(4-Fluoro-phenyl)-6-oxo-1,4,5,6-tetrahydro-pyridine-3-carboxylic acid(2-bromo-5-methyl-phenyl)-amide]",6.87
11,"COc1cc(Br)c(NC(=O)C2=CNC(=O)C[C@@H]2c2ccc(F)cc2)cc1OC [Compound 39, (R)-4-(4-Fluoro-phenyl)-6-oxo-1,4,5,6-tetrahydro-pyridine-3-carboxylic acid(2-bromo-4,5-dimethoxy-phenyl)-amide]",6.99
12,"COc1cc(Br)c(NC(=O)C2=CNC(=O)C[C@H]2c2ccc(F)cc2)cc1OC [Compound 40, (S)-4-(4-Fluoro-phenyl)-6-oxo-1,4,5,6-tetrahydro-pyridine-3-carboxylic acid(2-bromo-4,5-dimethoxy-phenyl)-amide]",7.895
13,"COc1cc(C)c(NC(=O)C2=CNC(=O)C[C@@H]2c2ccc(F)cc2)cc1OC [Compound 41, (R)-4-(4-Fluoro-phenyl)-6-oxo-1,4,5,6-tetrahydro-pyridine-3-carboxylic acid (4,5-dimethoxy-2-methyl-phenyl)-amide]",7.225
14,"COc1cc(C)c(NC(=O)C2=CNC(=O)C[C@H]2c2ccc(F)cc2)cc1OC [Compound 42, (S)-4-(4-Fluoro-phenyl)-6-oxo-1,4,5,6-tetrahydro-pyridine-3-carboxylic acid (4,5-dimethoxy-2-methyl-phenyl)-amide]",7.993
15,"COc1cc(Br)c(NC(=O)C2=CN(C)C(=O)C[C@H]2c2ccc(F)cc2)cc1OC [Compound 44, (S)-4-(4-Fluoro-phenyl)-1-methyl-6-oxo-1,4,5,6-tetrahydro-pyridine-3-carboxylic acid(2-bromo-4,5-dimethoxy-phenyl)-amide]",5.875
16,"COc1ccc(C)c(NC(=O)C2=CNC(=O)C[C@@H]2c2cccc(F)c2)c1 [Compound 45, (R)-4-(3-Fluoro-phenyl)-6-oxo-1,4,5,6-tetrahydro-pyridine-3-carboxylic acid(5-methoxy-2-methyl-phenyl)-amide]",6.765
17,"COc1ccc(C)c(NC(=O)C2=CNC(=O)C[C@H]2c2cccc(F)c2)c1 [Compound 46, (S)-4-(3-Fluoro-phenyl)-6-oxo-1,4,5,6-tetrahydro-pyridine-3-carboxylic acid(5-methoxy-2-methyl-phenyl)-amide]",7.695
18,"COc1cc(C)c(NC(=O)C2=CNC(=O)C[C@H]2c2cccc(F)c2)cc1OC [Compound 48, (S)-4-(3-Fluoro-phenyl)-6-oxo-1,4,5,6-tetrahydro-pyridine-3-carboxylic acid (4,5-dimethoxy-2-methyl-phenyl)-amide]",7.7225
19,"Cc1cc(C)c(Br)c(NC(=O)C2=CNC(=O)CC2c2ccc(F)cc2)c1 (centres unmarked) [Compound 49, 4-(4-Fluoro-phenyl)-6-oxo-1,4,5,6-tetrahydro-pyridine-3-carboxylic acid(2-bromo-3,5-dimethyl-phenyl)-amide]",7.48
20,"Cc1ccc(C(F)(F)F)cc1NC(=O)C1=CNC(=O)CC1c1cccc(F)c1 (centres unmarked) [Compound 50, 4-(3-Fluoro-phenyl)-6-oxo-1,4,5,6-tetrahydro-pyridine-3-carboxylic acid(2-methyl-5-trifluoromethyl-phenyl)-amide]",6.89
21,"Cc1ccc(C(C)C)cc1NC(=O)C1=CNC(=O)CC1c1cccc(F)c1 (centres unmarked) [Compound 51, 4-(3-Fluoro-phenyl)-6-oxo-1,4,5,6-tetrahydro-pyridine-3-carboxylic acid(5-isopropyl-2-methyl-phenyl)-amide]",7.445
22,"CCN(CC)S(=O)(=O)c1ccc(Cl)c(NC(=O)C2=CNC(=O)CC2c2cccc(F)c2)c1 (centres unmarked) [Compound 52, 4-(3-Fluoro-phenyl)-6-oxo-1,4,5,6-tetrahydro-pyridine-3-carboxylic acid(2-chloro-5-diethylsulfamoyl-phenyl)-amide]",6.02
23,"O=C1CC(c2cccc(F)c2)C(C(=O)Nc2cccc3c2CCCC3)=CN1 (centres unmarked) [Compound 53, 4-(3-Fluoro-phenyl)-6-oxo-1,4,5,6-tetrahydro-pyridine-3-carboxylic acid(5,6,7,8-tetrahydro-naphthalen-1-yl)-amide]",6.83
24,"COc1cc(NC(=O)C2=CNC(=O)CC2c2ccc(F)cc2)c(C)cc1F (centres unmarked) [Compound 54, 4-(4-Fluoro-phenyl)-6-oxo-1,4,5,6-tetrahydro-pyridine-3-carboxylic acid(4-fluoro-5-methoxy-2-methyl-phenyl)-amide]",7.02
25,"Cc1ccc(C)c(NC(=O)C2=CNC(=O)C[C@@H]2c2ccc(F)cc2)c1 [Compound 55, (R)-4-(4-Fluoro-phenyl)-6-oxo-1,4,5,6-tetrahydro-pyridine-3-carboxylic acid (2,5-dimethyl-phenyl)-amide]",7.535
26,"Cc1ccc(C)c(NC(=O)C2=CNC(=O)C[C@H]2c2ccc(F)cc2)c1 [Compound 56, (S)-4-(4-Fluoro-phenyl)-6-oxo-1,4,5,6-tetrahydro-pyridine-3-carboxylic acid (2,5-dimethyl-phenyl)-amide]",6.56
